Laboratory results as given in patent publication US10022374B2, “Certain protein kinase inhibitors” (Shanghai Fochon Pharmaceutical Co., Ltd., priority 2013, dated 2018).
Read-outs that look alike come from different tables or passages of the source.

Tests used:
[1] = tested on: A-375 cells; assay: Inhibition of cell proliferation (MTS), A-375 cells; format: cell-based; details: A-375 cells, 3000 cells/well, 72 h, MTS, absorbance 490 nm, read-out: A375 IC50
Method: (§1) MTS testing kit was purchased from Promega. The DMEM, RPMI-1640 and Fetal bovine serum were purchased from Gibco. Dimethyl sulfoxide (DMSO) was purchased from Sigma.
(§2) To investigate whether a compound is able to inhibit the activity of MEK in cells, a mechanism-based assay using A-375 and HT-29 cell was developed. In this assay, inhibition of MEK was detected by the inhibition of A-375 and HT-29 cells proliferation. A-375 and HT-29 cells were cultured in culture flasks to 40-80% confluence respectively in DMEM and RPMI-1640 plus 10% fetal bovine serum. Cells were collected and plated onto 96-well plates at desired cell density (A-375: 3000 cells/well; HT-29: 5000 cells/well). Plates were incubated overnight at 37° C., with 5% CO2 to adhere. Compounds were added to the plates. The final compound concentrations were […], 12.35, 4.12, 1.37, 0.46 and 0.15 nM, respectively. Place plates at 37° C., with 5% CO2 for 72 h. 10 μl MTS were added to each well and incubate the plates for exactly 2 hours. Absorbance was measured at 490 nm. […] was calculated using GraphPad Prism 5.0.

[2] = tested on: HT-29 cells; assay: Inhibition of cell proliferation (MTS), HT-29 cells; format: cell-based; details: HT-29 cells, 5000 cells/well, 72 h, MTS, absorbance 490 nm, read-out: HT29 IC50
Method: as §1, §2

Row | SMILES | IC50 ([1]; Homo sapiens, A-375, 72 h) | IC50 ([2]; Homo sapiens, HT-29, 72 h) | IC50 [1] | IC50 [2]
1 | CCCn1nc(-c2cccc(NS(=O)(=O)C3CC3)c2)c2c(c(Nc3ccc(I)cc3F)c(F)c(=O)n2C)c1=O [Example 17, N-(3-(3-fluoro-4-(2-fluoro-4-iodophenylamino)-1-methyl-2,5-dioxo-6-propyl-1,2,5,6-tetrahydropyrido[2,3-d]pyridazin-8-yl)phenyl)cyclopropanesulfonamide] | 12.8 nM | 21.6 nM | – | –
2 | COCCn1nc(-c2cccc(NS(=O)(=O)C3CC3)c2)c2c(c(Nc3ccc(I)cc3F)c(F)c(=O)n2C)c1=O [Example 18, N-(3-(3-fluoro-4-(2-fluoro-4-iodophenylamino)-6-(2-methoxyethyl)-1-methyl-2,5-dioxo-1,2,5,6-tetrahydropyrido[2,3-d]pyridazin-8-yl)phenyl)cyclopropanesulfonamide] | 30.2 nM | 23.6 nM | – | –
3 | Cn1c(=O)c(F)c(Nc2ccc(I)cc2F)c2c(=O)n(CCF)nc(-c3cccc(NS(=O)(=O)C4CC4)c3)c21 [Example 19, N-(3-(3-fluoro-4-(2-fluoro-4-iodophenylamino)-6-(2-fluoroethyl)-1-methyl-2,5-dioxo-1,2,5,6-tetrahydropyrido[2,3-d]pyridazin-8-yl)phenyl)cyclopropanesulfonamide] | 2.4 nM | 4.2 nM | – | –
4 | Cn1c(=O)c(F)c(Nc2ccc(I)cc2F)c2c(=O)n(CC(F)F)nc(-c3cccc(NS(=O)(=O)C4CC4)c3)c21 [Example 20, N-(3-(6-(2,2-difluoroethyl)-3-fluoro-4-(2-fluoro-4-iodophenylamino)-1-methyl-2,5-dioxo-1,2,5,6-tetrahydropyrido[2,3-d]pyridazin-8-yl)phenyl)cyclopropanesulfonamide] | 6.4 nM | 7.7 nM | – | –
5 | CC(=O)Nc1cccc(-c2nn(C)c(=O)c3c(Nc4ccc(I)cc4F)c(F)c(=O)n(C)c23)c1 [Example 21, N-(3-(3-fluoro-4-(2-fluoro-4-iodophenylamino)-1,6-dimethyl-2,5-dioxo-1,2,5,6-tetrahydropyrido[2,3-d]pyridazin-8-yl)phenyl)acetamide] | 3.9 nM | < 1 nM | – | –
6 | Cn1nc(-c2cccc(NS(C)(=O)=O)c2)c2c(c(Nc3ccc(I)cc3F)c(F)c(=O)n2C)c1=O [Example 22, N-(3-(3-fluoro-4-(2-fluoro-4-iodophenylamino)-1,6-dimethyl-2,5-dioxo-1,2,5,6-tetrahydropyrido[2,3-d]pyridazin-8-yl)phenyl)methanesulfonamide] | < 1 nM | < 1 nM | – | –
7 | Cn1nc(-c2cccc(NS(=O)(=O)C3CC3)c2)c2c(c(Nc3ccc(I)cc3F)c(F)c(=O)n2C)c1=O [Example 23, N-(3-(3-fluoro-4-(2-fluoro-4-iodophenylamino)-1,6-dimethyl-2,5-dioxo-1,2,5,6-tetrahydropyrido[2,3-d]pyridazin-8-yl)phenyl)cyclopropanesulfonamide] | < 1 nM | < 1 nM | – | –
8 | CCn1nc(-c2cccc(NC(C)=O)c2)c2c(c(Nc3ccc(I)cc3F)c(F)c(=O)n2C)c1=O [Example 24, N-(3-(6-ethyl-3-fluoro-4-(2-fluoro-4-iodophenylamino)-1-methyl-2,5-dioxo-1,2,5,6-tetrahydropyrido[2,3-d]pyridazin-8-yl)phenyl)acetamide] | 13.7 nM | 6.1 nM | – | –
9 | CCn1nc(-c2cccc(NS(C)(=O)=O)c2)c2c(c(Nc3ccc(I)cc3F)c(F)c(=O)n2C)c1=O [Example 25, N-(3-(6-ethyl-3-fluoro-4-(2-fluoro-4-iodophenylamino)-1-methyl-2,5-dioxo-1,2,5,6-tetrahydropyrido[2,3-d]pyridazin-8-yl)phenyl)methanesulfonamide] | < 1 nM | < 1 nM | – | –
10 | CCn1nc(-c2cccc(NS(=O)(=O)C(C)C)c2)c2c(c(Nc3ccc(I)cc3F)c(F)c(=O)n2C)c1=O [Example 26, N-(3-(6-ethyl-3-fluoro-4-(2-fluoro-4-iodophenylamino)-1-methyl-2,5-dioxo-1,2,5,6-tetrahydropyrido[2,3-d]pyridazin-8-yl)phenyl)propane-2-sulfonamide] | 11.9 nM | < 1 nM | – | –
11 | CCn1nc(-c2cccc(NS(=O)(=O)C3CC3)c2)c2c(c(Nc3ccc(I)cc3F)c(F)c(=O)n2C)c1=O [Example 27, N-(3-(6-ethyl-3-fluoro-4-(2-fluoro-4-iodophenylamino)-1-methyl-2,5-dioxo-1,2,5,6-tetrahydropyrido[2,3-d]pyridazin-8-yl)phenyl)cyclopropanesulfonamide] | < 1 nM | < 1 nM | – | –
12 | C=CCn1nc(-c2cccc(NC(C)=O)c2)c2c(c(Nc3ccc(I)cc3F)c(F)c(=O)n2C)c1=O [Example 28, N-(3-(6-allyl-3-fluoro-4-(2-fluoro-4-iodophenylamino)-1-methyl-2,5-dioxo-1,2,5,6-tetrahydropyrido[2,3-d]pyridazin-8-yl)phenyl)acetamide] | 1.6 nM | 6.4 nM | – | –
13 | C=CCn1nc(-c2cccc(NC(=O)CC)c2)c2c(c(Nc3ccc(I)cc3F)c(F)c(=O)n2C)c1=O [Example 29, N-(3-(6-allyl-3-fluoro-4-(2-fluoro-4-iodophenylamino)-1-methyl-2,5-dioxo-1,2,5,6-tetrahydropyrido[2,3-d]pyridazin-8-yl)phenyl)propionamide] | 51.2 nM | 106 nM | – | –

Results, then the compound that gave them:

Row | IC50 ([1]; Homo sapiens, A-375, 72 h) | IC50 ([2]; Homo sapiens, HT-29, 72 h) | IC50 [1] | IC50 [2] | SMILES
14 | 80.7 nM | 76.7 nM | – | – | C=CCn1nc(-c2cccc(NC(=O)C3CC3)c2)c2c(c(Nc3ccc(I)cc3F)c(F)c(=O)n2C)c1=O [Example 30, N-(3-(6-allyl-3-fluoro-4-(2-fluoro-4-iodophenylamino)-1-methyl-2,5-dioxo-1,2,5,6-tetrahydropyrido[2,3-d]pyridazin-8-yl)phenyl)cyclopropanecarboxamide]
15 | 1.1 nM | 7.4 nM | – | – | C=CCn1nc(-c2cccc(NS(C)(=O)=O)c2)c2c(c(Nc3ccc(I)cc3F)c(F)c(=O)n2C)c1=O [Example 31, N-(3-(6-allyl-3-fluoro-4-(2-fluoro-4-iodophenylamino)-1-methyl-2,5-dioxo-1,2,5,6-tetrahydropyrido[2,3-d]pyridazin-8-yl)phenyl)methanesulfonamide]
16 | 36.2 nM | 12.7 nM | – | – | C=CCn1nc(-c2cccc(NS(=O)(=O)CC)c2)c2c(c(Nc3ccc(I)cc3F)c(F)c(=O)n2C)c1=O [Example 32, N-(3-(6-allyl-3-fluoro-4-(2-fluoro-4-iodophenylamino)-1-methyl-2,5-dioxo-1,2,5,6-tetrahydropyrido[2,3-d]pyridazin-8-yl)phenyl)ethanesulfonamide]
17 | 12.6 nM | 7.2 nM | – | – | C=CCn1nc(-c2cccc(NS(=O)(=O)C(C)C)c2)c2c(c(Nc3ccc(I)cc3F)c(F)c(=O)n2C)c1=O [Example 33, N-(3-(6-allyl-3-fluoro-4-(2-fluoro-4-iodophenylamino)-1-methyl-2,5-dioxo-1,2,5,6-tetrahydropyrido[2,3-d]pyridazin-8-yl)phenyl)propane-2-sulfonamide]
18 | – | – | 4.2 nM | 4.6 nM | C=CCn1nc(-c2cccc(NS(=O)(=O)C3CC3)c2)c2c(c(Nc3ccc(I)cc3F)c(F)c(=O)n2C)c1=O [Example 34, N-(3-(6-allyl-3-fluoro-4-(2-fluoro-4-iodophenylamino)-1-methyl-2,5-dioxo-1,2,5,6-tetrahydropyrido[2,3-d]pyridazin-8-yl)phenyl)cyclopropanesulfonamide]
19 | 26.3 nM | 22.6 nM | – | – | C=CCn1nc(-c2cccc(NC(=O)C(C)C)c2)c2c(c(Nc3ccc(I)cc3F)c(F)c(=O)n2C)c1=O [Example 35, N-(3-(6-allyl-3-fluoro-4-(2-fluoro-4-iodophenylamino)-1-methyl-2,5-dioxo-1,2,5,6-tetrahydropyrido[2,3-d]pyridazin-8-yl)phenyl)isobutyramide]
20 | 341 nM | 427 nM | – | – | C=CCn1nc(-c2cccc(NC(C)=O)c2)c2c(c(Nc3ccc(Br)cc3F)c(F)c(=O)n2C)c1=O [Example 36, N-(3-(6-allyl-4-(4-bromo-2-fluorophenylamino)-3-fluoro-1-methyl-2,5-dioxo-1,2,5,6-tetrahydropyrido[2,3-d]pyridazin-8-yl)phenyl)acetamide]
21 | 32.4 nM | 42.7 nM | – | – | C=CCn1nc(-c2cccc(NS(C)(=O)=O)c2)c2c(c(Nc3ccc(Br)cc3F)c(F)c(=O)n2C)c1=O [Example 37, N-(3-(6-allyl-4-(4-bromo-2-fluorophenylamino)-3-fluoro-1-methyl-2,5-dioxo-1,2,5,6-tetrahydropyrido[2,3-d]pyridazin-8-yl)phenyl)methanesulfonamide]
22 | 2.5 nM | 1.9 nM | – | – | CC(=O)Nc1cccc(-c2nn(CC(O)CO)c(=O)c3c(Nc4ccc(I)cc4F)c(F)c(=O)n(C)c23)c1 (centres unmarked) [Example 40, N-(3-(6-(2,3-dihydroxypropyl)-3-fluoro-4-(2-fluoro-4-iodophenylamino)-1-methyl-2,5-dioxo-1,2,5,6-tetrahydropyrido[2,3-d]pyridazin-8-yl)phenyl)acetamide]
